The values below come from US6828309B2, “Use of pentosan polysulfate to treat certain conditions of the prostate” (The United States of America as represented by the …, priority 2000, dated 2004).

Data set [1] addresses T1, type II 5-alpha-reductase (Homo sapiens, UniProt P31213).
T1 sequence (P31213 1-254): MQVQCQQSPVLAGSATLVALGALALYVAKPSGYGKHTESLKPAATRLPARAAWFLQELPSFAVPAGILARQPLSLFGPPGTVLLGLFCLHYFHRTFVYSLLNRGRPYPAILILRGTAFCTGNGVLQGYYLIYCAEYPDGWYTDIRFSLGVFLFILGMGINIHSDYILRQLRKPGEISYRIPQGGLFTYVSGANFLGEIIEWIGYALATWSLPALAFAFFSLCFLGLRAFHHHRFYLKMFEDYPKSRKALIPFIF
To be noted: Moore et al. 1995; cited from earlier work.

The test system of another data set is human prostate cells. Put plainly: Dose response / growth curves of prostatic smooth muscle cells in 20% FBS, cell counts by Coulter counter. The class given is cell-based. As to the method: Fragments from the nodular areas of prostatectomy specimens were obtained, cut into small pieces, and incubated in a collagenase solution (3 mg/ml) (Sigma Chemical Co., St. Louis, Mo.) overnight at 37° C. The following day, the digested fragments were resuspended in complete Waymouth's medium (Gibco) containing 20% fetal bovine serum (FBS), L-glutamine, penicillin (100 U/ml), streptomycin (100 μg/ml), and sodium bicarbonate. The digested fragments were then plated into 24-well plates (Nunc Nalge International, Naperville, Ill.) coated with human fibronectin (Collaborative Research). The fragments were left undisturbed in 95% […] and 5% CO2 until the first outgrowth was apparent (by day 7), at which time the cells appeared elongated and stellate and formed parallel arrays. The medium was changed twice a week until the cells reached confluence, at which time the cells were transferred into flasks. All experiments were performed on cells between passage 2 and 10, at which time the cells appeared to have a stable phenotype (i.e., monolayer growth with no morphological change and no hillock formation at confluence). Characterization was performed by staining for a smooth muscle cell actin (Sigma Chemical Co.) and F actin (Molecular Probes) in accordance with manufacturers' directions. All of the cells contained end to end actin filaments when stained with phalloidin. Such staining is characteristic of mesenchymal cells. Since the majority of the cells contained smooth muscle actin (see FIG. 1), the cells were considered to be smooth muscle cells
Dose response curves for the cells were generated by plating cells at 5,000 cells/well in 24-well plates (Nunc) in medium containing 20% FBS. After 36 hours, the medium was replaced with fresh 20% FBS containing medium and increasing concentrations of PPS (Elmiron®, Ivax Corp., Miami Fla.) were added. Cells were counted on days 1, 3 and 4 with a Coulter 7.1 cell counter (Coulter, Hialeah, Fla.). The addition of FBS stimulated cell proliferation. […] Cell number decreased 24 hours following treatment with PPS (10 or 100 μg/ml) (see FIG. 2). […]

Another data set deals with MMP-2. Nature of the data set: Zymography for metalloproteinases in medium of PPS-treated cells (MMP-2). The class given is cell-based, human. The settings on record: PPS 100 μg/μl daily for 5 days; densitometry. The method, then: (§1) Cells in medium containing 20% FBS were pipetted into 6-well plates and were left undisturbed for 24 hours. On day 0, fresh medium containing 20% serum, with and without PPS ([…]), was added PPS was added daily for 5 days. At day 4, the serum in the medium was reduced to 0.1% FBS so as to avoid interference with the assays. At the time of collection, the cellular supernatants were centrifuged to remove cellular debris. Cell layers from the same wells were used to determine cell number.
(§2) Briefly, medium was diluted with 0.1% FBS and 5× Laemmli buffer so that all samples corresponded to an identical cell number. Gelatinases (MMP-9 and MMP-2) in the medium were assayed using 10% zymogram gels (Novex, San Diego, Calif.). Following electrophoresis, the gels were washed for 1 hour in 2.5% SDS and incubated overnight in collagenase as described previously (Boyle et al., Urology 48: 398-405, 1996). The gels were stained with Coomassie Blue and air-dried. To check for non-specific bands, gels were incubated in 50 mM Tris buffer, with the addition of 25 mM EDTA. Quantitative densitometry was performed using NIH image 1.6. […] However MMP-9 increased 235.7+/−50.31 as compared to control cells (see FIG. 3) (p<001).

The next data set concerns MMP-9. Nature of the data set: Zymography for metalloproteinases in medium of PPS-treated cells (MMP-9). It is filed as cell-based, human. To be noted: PPS 100 μg/μl daily for 5 days; densitometry. The method, then: as §1, §2
A further data set has as its system TIMP-1. Nature of the data set: Reverse zymography for tissue inhibitors of metalloproteinases (TIMP-1). The class given is cell-based, human. To be noted: PPS-treated cells; densitometry. As to the method: (§3) Tissue inhibitors of metalloproteinases (TIMPS) in the supernatant and the cell layer were assessed by reverse zymography. Briefly, gels were prepared containing gelatinase A. Medium was diluted to normalize for cell number as described in Example 2. Gels were washed for 1 hour in 2.5% SDS following electrophoresis and incubated overnight at 37° C. Coomasie Blue staining and air drying was performed as described in Example 2. Densitometry was performed using NIH image 1.6 to quantitate the TIMPS activity.

The test system of another data set is TIMP-2. Nature of the data set: Reverse zymography for tissue inhibitors of metalloproteinases (TIMP-2). To be noted: PPS-treated cells; barely detectable in the control medium. It is filed as cell-based, human. As to the method:
as §3

Another data set concerns type IV collagen. Nature of the data set: Collagen analysis, type IV collagen immunoassay. It is filed as cell-based, human. The settings on record: PPS-treated vs untreated cells. As to the method: (§4) Another set of cells was plated as described in Example 2 and either treated with PPS or left untreated. The supernatant was centrifuged to remove cellular debris and transferred to a tube containing protease inhibitors (PMSF, NEM, EDTA) and frozen prior to assay.
Type IV collagen: The Assay was performed in a similar way, except the medium and standards were coated on the plate for 8 hours prior to blocking. The concentration of the antibody and the biotinylated goat anti-rabbit IgG was 1:2000. The SAAP was used at 1:1500.
(§5) Type I and type IV (Biodesign) collagen standards were diluted to a final concentration of 0.25-4 ng/well in 0.02 N acetic acid. The curves were linear (r=0.98).

The test system of a further data set is type I collagen. Nature of the data set: Collagen analysis, type I collagen immunoassay. To be noted: PPS-treated vs untreated cells. The class given is cell-based, human. The method, then: as §4
Type I collagen: 100 μl of medium or human collagen type I standard were incubated for 24 hours in a 96 well plate (Nunc). After 3 washes with 0.05% Tween/PBS, the wells were blocked with 1% BSA/PBS for an additional 24 hours. Following 4 washes with 0.05% Tween/PBS, 50 μl of human collagen type I antibody (1:1000) (Biodesiga, Kennebunk, Me.) was applied for 90 minutes. The plate was washed again and biotin-labeled goat anti-rabbit IgG (1:1000, Sigma) was applied for 1 hour. The wells were washed 4 more times and incubated with streptavidin […] (SAAP) at a 1:2500 concentration. P-nitrophenyl phosphate (pNPP, Sigma) was used for color development according to the manufacturer's directions. The plate was read in a Titertek Mulitskan plate reader at 405 nm.
as §5

For data set [2] the following is noted: patients treated for IC; Sand et al. 1997; cited from earlier work.

Take `CC(C)(C)NC(=O)[C@H]1CC[C@H]2[C@@H]3CC[C@H]4NC(=O)C=C[C@]4(C)[C@H]3CC[C@]12C` [finasteride]: in data set [1], the “Decrease in DHT” value is 72%, the Prostate specific antigen entry was “reduction” and the Prostate volume reductions is 30%.
As for pentosan polysulfate [PPS], the Cell number result in the data set with human prostate cells (24 hours following treatment with PPS (10 or 100 μg/ml), 20% FBS) is on record as “decreased”. Further, in the data set with human prostate cells (PPS 10 or 100 μg/ml), the “Cell death, as assessed by trypan blue staining” value is on record as “not associated with cell death”. For the same molecule, in the data set with human prostate cells (day 4 of treatment with 100 μg/ml PPS), the “Decrease in cell number” value is given as 3 fold. Besides, the “MMP-2 levels, PPS-treated cells vs control cells” value in the data set with MMP-2 is “no significant differences”. Further, the “MMP-9 increase as compared to control cells” value in the data set on MMP-9 is 235.7+/−50.31% of untreated control c. In addition, in the data set with TIMP-1, the “TIMP-1 levels increase as compared to control cells” value is listed as 203.5+/−50.31% of untreated control c. Further, the “TIMP-2 expression in the medium” value in the data set with TIMP-2 is “expressed at high levels”. Also, the “Type IV collagen level” value in the data set on type IV collagen (cell layer) was 52.99%+/−7.556 % of controls; with type IV collagen (medium), 43.03%+/−4.029 % of controls. For the same molecule, the results for the “Type I collagen level relative to untreated control” value with type I collagen (cell layer) and with type I collagen (medium) were 66.91%+/−25.42 % of controls and 29.97%+/−3.692 % of controls, respectively. In [2], the “Serious adverse effects (mainly gastrointestinal or alopecia)” value is on record as 3.2 % of chronic users.
